Data taken from US20110189199A1, “METHODS FOR P2RY5 MEDIATED REGULATION OF HAIR GROWTH AND MUTANTS THEREOF” (priority 2008, published 2011).

Columns and labels:
P2RY5 receptor = P2RY5 receptor (Homo sapiens, UniProt P43657, DEL128-129/DEL256-257/Q258T); test: Tango P2RY5 U2OS beta-lactamase reporter assay; assay type: cell-based
Protocol: The Tango™ P2RY5 U2OS antibiotic selected pool cells were plated at 10,000 cells/well into a 384 well clear bottom assay plate in Freestyle™ media. FBS (Fetal Bovine 20%) or a PMA concentration dilution series (in Freestyle™ media) was then added to the plate at the indicated concentrations. The plate was placed at 37° C. 5% CO2 for 24 hours for receptor stimulation followed by betalactamase substrate loading for 2 hours. (The P2RY5 cells were also tested with a 48 hour stimulation time with equivalent results.)
(§1) The antibiotic selected Tango™ P2RY5 U2OS cells were cultured to 80-90% confluence in tissueculture flasks. The growth media was then removed and replaced with Freestyle™ media either with (stimulated) or without (un-stimulated) 20% FBS. The cultures were then placed at 37° C. 5% CO2 for 48 hours for receptor stimulation followed by beta-lactamase substrate loading for 2 hours. Responsive cells were then sorted by FACS into a single pool and three 96 well plates of clones.
The Tango™ P2RY5 U2OS cells were plated at 10,000 cells/well into a 384 well clear bottom assay plate in Freestyle™ media. FBS was then added to half the wells in the assay to a concentration of 20% (stimulated) while the other half of the assay received an equal volume of Freestyle™ Media (un-stimulated). The plate was placed at 37° C. 5% CO2 for 48 hours for receptor stimulation followed by betalactamase substrate loading for 2 hours.
as §1, with “selected FACS sorted responsive cell” for “selected”, “U2OS Pool was” for “U2OS cells were”, “in two tissue culture” for “in tissueculture”, “a green cell pool from the un-stimulated cell sample, and into a blue cell” for “a single”, “of clones from the FBS stimulated sample.” for “of clones.”
The Tango™ P2RY5 U2OS sorted pool cells were plated at 10,000 cells/well into a 384 well clear bottom assay plate in FreeStyle™ media. The dFBS was immediately added to plate to final concentration of 20% by volume (stimulated). An equal volume of Free Style™ media was added to the un-stimulated wells. The plate was placed at 37° C. 5% CO2 for 48 hrs for receptor stimulation followed by beta-lactamase substrate loading for 2 hours.
The Tango™ P2RY5 U2OS sorted pool cells were plated at 10,000 cells/well into a 384 well clear bottom assay plate in FreeStyle™ media. The plate was placed at 37° C. […]

[1] = system: Tango™ P2RY5 U2OS Clone 10F cells; test: Cell death at high PMA concentrations in the Tango P2RY5 assay; assay type: cell-based
Protocol: The Tango™ P2RY5 U2OS Clone 10F cells were plated at 10,000 cells/well into a 384 well clear bottom assay plate in 32 μl/well Freestyle™ medium. 4 μl/well 10× DMSO in Freestyle™ medium was then added to the wells of the assay plate to bring the final DMSO concentration in the wells to 0% (no DMSO), 0.1%, 0.5% or 1.0% DMSO. 4 μl/well PMA (10× in Freestyle™ medium) was immediately added to the plate to the indicated concentrations. The plate was placed at 37° C./5% CO2 for 18 hours for receptor stimulation followed by beta-lactamase substrate loading for 2 hours.
The Tango™ P2RY5 U2OS Clone 10F cells were plated at 10,000 cells/well into two 384 well clear bottom assay plate in 32 μl/well Freestyle™ medium. One plate was placed at 37° C./5% CO2 for 18 hours prior to PMA stimulation for 5 hours while PMA was immediately added to the other plate for an 18 hours stimulation. At the time of stimulation 4 μl/well of a 10× stock of DMSO in Freestyle™ medium was added to the wells of the assay plate to bring the final DMSO concentration in the wells to 0.1% DMSO. 4 μl/well PMA (10× in Freestyle™ medium) was then added to the plate to the indicated concentrations. The plates were placed at 37° C./5% CO2 for 5 or 18 hours for receptor stimulation followed by beta-lactamase substrate loading for 2 h.
Tango™ P2RY5 U2OS clone 10F cells were cryopreserved at 2.5×10̂6 cells/ml in Recovery™ freezing medium in liquid nitrogen for several days. The cells were thawed into Freestyle™ assay medium prior to use in the assay. The Tango™ P2RY5 U2OS Clone 10F cells were plated at 10,000 cells/well into two 384 well clear bottom assay plate in 32 μl/well Freestyle™ medium. One plate was placed at 37° C./5% CO2 for 18 hours prior to PMA stimulation for 5 hours while PMA was immediately added to the other plate for an 18 hour stimulation. At the time of stimulation 4 μl/well of a 10× stock of DMSO in Freestyle™ medium was added to the wells of the assay plate to bring the final DMSO concentration in the wells to 0.1% DMSO. […]

P2RY5 receptor, sequence (P43657 with tags, fused parts or gaps DEL128-129/DEL256-257/Q258T): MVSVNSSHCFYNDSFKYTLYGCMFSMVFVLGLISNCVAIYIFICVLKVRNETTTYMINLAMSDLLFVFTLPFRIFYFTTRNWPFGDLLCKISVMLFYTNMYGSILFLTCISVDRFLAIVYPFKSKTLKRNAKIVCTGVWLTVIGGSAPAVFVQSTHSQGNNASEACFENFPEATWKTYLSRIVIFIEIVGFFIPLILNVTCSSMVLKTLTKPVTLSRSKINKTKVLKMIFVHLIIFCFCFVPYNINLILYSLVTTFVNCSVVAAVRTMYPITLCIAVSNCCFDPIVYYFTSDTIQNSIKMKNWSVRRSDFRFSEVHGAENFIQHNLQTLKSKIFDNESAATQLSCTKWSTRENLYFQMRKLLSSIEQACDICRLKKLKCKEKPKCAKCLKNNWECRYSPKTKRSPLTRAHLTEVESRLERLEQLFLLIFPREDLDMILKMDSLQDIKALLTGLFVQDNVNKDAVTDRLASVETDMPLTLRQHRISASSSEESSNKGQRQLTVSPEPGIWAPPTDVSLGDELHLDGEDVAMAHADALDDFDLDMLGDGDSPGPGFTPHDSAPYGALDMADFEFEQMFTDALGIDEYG

CCCCCCCCCCCCCC(=O)O[C@@H]1[C@@H](C)[C@@]2(O)[C@@H](C=C(CO)C[C@]3(O)C(=O)C(C)=C[C@@H]23)[C@@H]2C(C)(C)[C@]12OC(C)=O [PMA]
assay window, 5 hour vs 18 hour stimulation time (P2RY5 receptor; Clone 10F, 5 hour stimulation, 0.1% DMSO): larger assay window than the 18 hour stimulation time | response to PMA, cryopreserved vs dividing cells (P2RY5 receptor; Clone 10F, cryopreserved cells, 5 or 18 hours stimulation): slightly less potent response | beta-lactamase response through the P2RY5 receptor (P2RY5 receptor; Green sort pool, 5 hours stimulation): slight inducible beta-lactamase response | beta-lactamase response through the P2RY5 receptor (P2RY5 receptor; sorted clones, 18 hours stimulation): concentration dependant beta-lactamase response | PMA concentrations with cell death in the wells ([1]; cryopreserved cells, 18 hours stimulation): greater than 100 nM | PMA concentrations with cell death in the wells ([1]; dividing cells, 5 hour stimulation): > 1 µM | PMA concentrations with cell death in the wells ([1]; dividing cells, 18 hour stimulation): greater than 100 nM
